Test results published in PubChem BioAssay (NCI).
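Method: 48-hour compound exposure of cells in 96-well plates, five concentrations, linear interpolation of endpoints. TGI marks complete inhibition of growth.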 Where a SMILES comes first, the peptide text is derived from it. The star is where a group is joined. Boc = CC(C)(C)OC(=O)*; Bn = c1ccc(C*)cc1

How the values were obtained:
Assay in all cases: NCI-60 cell line screen, 48 h
A549 NSCLC = system: A549 NSCLC
COLO 205 colon = system: COLO 205 colon
HT29 colon = system: HT29 colon
MDA-MB-231 breast = system: MDA-MB-231 breast
OVCAR-3 ovarian = system: OVCAR-3 ovarian
SN12C renal = system: SN12C renal
SW-620 colon = system: SW-620 colon
T-47D breast = system: T-47D breast
TK-10 renal = system: TK-10 renal
K-562 leukemia = system: K-562 leukemia
UO-31 renal = system: UO-31 renal

Compound	TGI (A549 NSCLC)	TGI (COLO 205 colon)	TGI (HT29 colon)	TGI (MDA-MB-231 breast)	TGI (OVCAR-3 ovarian)	TGI (SN12C renal)	TGI (SW-620 colon)	TGI (T-47D breast)	TGI (TK-10 renal)	TGI (K-562 leukemia)	TGI (UO-31 renal)
C[C@H]1[C@H]2[C@H]3CC[C@@H]4[C@@]5(C)CC[C@H](O)C(C)(C)[C@@H]5CC[C@@]4(C)[C@]3(C)C[C@H](O)[C@@]2(C)C[C@H]2O[C@]21C	41.7 µM	58.7 µM	30.2 µM	36.9 µM	36.4 µM	37.8 µM	70.1 µM	46.8 µM	41.5 µM	–	–
Cc1ccc(-c2c(C#N)c(-c3ccc(C)cc3)n(NS(=O)(=O)c3ccccc3)c(=O)c2C#N)cc1	> 100 µM	> 100 µM	> 100 µM	> 100 µM	–	> 100 µM	> 100 µM	–	> 100 µM	> 100 µM	–
COC(=O)C(CC(C)C)NC(=O)C(C)NC(=O)C(Cc1ccc(OCc2ccccc2)cc1)NC(=O)C(COCc1ccccc1)NC(=O)OC(C)(C)C (centres undefined) (Boc-S(Bn)Y(Bn)AL-OMe; configuration not given here)	> 100 µM	> 100 µM	> 100 µM	–	> 100 µM	> 100 µM	> 100 µM	> 100 µM	> 100 µM	> 100 µM	> 100 µM
O=C(O)C(O)C(O)C(O)C(O)c1nc2ccccc2s1 (centres undefined)	39.3 µM	> 100 µM	41.9 µM	31.9 µM	31.4 µM	34.8 µM	54.7 µM	52.7 µM	29.3 µM	–	30.1 µM
c1ccc(N=C(N2CCCC2)N(CCN2CCCC2)c2ccccc2)cc1	> 100 µM	75.4 µM	14.8 µM	–	> 100 µM	> 100 µM	> 100 µM	> 100 µM	> 100 µM	> 100 µM	> 100 µM
CC1(C)[C@@H](Cn2ccc(=O)[nH]c2=O)CC[C@@]1(C)CO	> 100 µM	> 100 µM	–	> 100 µM	> 100 µM	> 100 µM	> 100 µM	> 100 µM	> 100 µM	> 100 µM	> 100 µM
CCO/C(O)=C(/C(=N)N1CCOCC1)C(=O)Nc1ccc(F)cc1	> 100 µM	> 100 µM	> 100 µM	> 100 µM	> 100 µM	> 100 µM	> 100 µM	> 100 µM	> 100 µM	> 100 µM	–
COc1cc(Nc2nc3ccccc3nc2C(=O)O)cc(OC)c1OC	> 100 µM	> 100 µM	–	> 100 µM	> 100 µM	> 100 µM	> 100 µM	> 100 µM	78.6 µM	> 100 µM	> 100 µM
N#CC1C(=S)NC(c2ccccc2)=CC12CCCCC2 (centres undefined)	> 100 µM	> 100 µM	> 100 µM	> 100 µM	–	> 100 µM	> 100 µM	31.1 µM	54.9 µM	> 100 µM	72.1 µM
CO[C@@]12C[C@@H](C)C3=CCC(C)=C3CC1=C(C)C(=O)O2	–	> 100 µM	> 100 µM	> 100 µM	> 100 µM	–	> 100 µM	–	> 100 µM	> 100 µM	> 100 µM
Fc1ccc2c(c1)nc1n2C(c2c(Cl)cccc2Cl)SC1 (centres undefined)	28.2 µM	32.9 µM	29.5 µM	30.5 µM	26 µM	31 µM	27.6 µM	38.4 µM	31.6 µM	–	28.7 µM
C=CCc1cccc2cc(C(=O)NCc3ccccc3)c(=N)oc12	> 100 µM	> 100 µM	> 100 µM	> 100 µM	58.6 µM	91 µM	> 100 µM	> 100 µM	–	> 100 µM	–
COC(=O)c1c(O)ccc2c1c1c(n2Cc2cc(OC)cc(OC)c2)C(=O)c2ccccc2C1	> 100 µM	26 µM	24.6 µM	91.6 µM	> 100 µM	> 100 µM	> 100 µM	–	> 100 µM	> 100 µM	> 100 µM
NC(N)=NCCN1CC2CCC(CC2)C1	> 100 µM	> 100 µM	> 100 µM	> 100 µM	> 100 µM	> 100 µM	> 100 µM	> 100 µM	> 100 µM	–	> 100 µM
CC1(C)/C(=N\NC(N)=O)C2CCC1C2 (centres undefined)	> 100 µM	> 100 µM	> 100 µM	–	> 100 µM	–	> 100 µM	> 100 µM	> 100 µM	> 100 µM	> 100 µM
O=C1COc2cccnc2N1CCCCO	> 100 µM	–	–	> 100 µM	> 100 µM	> 100 µM	> 100 µM	> 100 µM	> 100 µM	–	> 100 µM

Compound	TGI (A549 NSCLC)	TGI (COLO 205 colon)	TGI (HT29 colon)	TGI (MDA-MB-231 breast)	TGI (OVCAR-3 ovarian)	TGI (SN12C renal)	TGI (SW-620 colon)	TGI (T-47D breast)	TGI (TK-10 renal)	TGI (K-562 leukemia)	TGI (UO-31 renal)
CCOC(=O)Nc1[nH]cc(-c2ccccc2)c1C#N	> 100 µM	> 100 µM	> 100 µM	> 100 µM	> 100 µM	> 100 µM	> 100 µM	–	> 100 µM	> 100 µM	> 100 µM
CO/N=C(\C(=O)OC(=NC1CCCCC1)NC1CCCCC1)c1csc(NC(c2ccccc2)(c2ccccc2)c2ccccc2)n1	> 10 µM	> 10 µM	> 10 µM	–	> 10 µM	> 10 µM	> 10 µM	> 10 µM	> 10 µM	> 10 µM	> 10 µM
NC(N)=NS(=O)(=O)c1ccc(NNc2c3ccccc3nc3c(C(=O)Nc4ccc(S(=O)(=O)Nc5ncccn5)cc4)cccc23)cc1	> 100 µM	> 100 µM	54.6 µM	> 100 µM	> 100 µM	> 100 µM	> 100 µM	> 100 µM	–	> 100 µM	83.7 µM
COc1cc(C2C3C=CC=C4CC=CC(=C43)C3CCC(=O)N32)cc(OC)c1OC (centres undefined)	> 100 µM	–	> 100 µM	> 100 µM	> 100 µM	> 100 µM	> 100 µM	> 100 µM	> 100 µM	> 100 µM	> 100 µM
O=C(/C=C/c1ccccc1)Oc1cccc(O)c1	> 100 µM	> 100 µM	> 100 µM	> 100 µM	> 100 µM	> 100 µM	37.9 µM	> 100 µM	> 100 µM	–	> 100 µM
CC1CC(OP(=O)(OCc2ccccc2)OCc2ccccc2)[C@@H](OCc2ccccc2)C(OCc2ccccc2)C1OCc1ccccc1 (some centres undefined)	> 100 µM	> 100 µM	> 100 µM	> 100 µM	–	> 100 µM	> 100 µM	> 100 µM	> 100 µM	> 100 µM	> 100 µM
Cc1ccc(/C=N/Nc2cc(C)c3cccc(C)c3n2)s1	26.3 µM	28.7 µM	13 µM	–	22.2 µM	25.1 µM	> 100 µM	> 100 µM	> 100 µM	–	38.7 µM
O=C1Sc2cc3ccccc3cc2C(=O)Sc2ccc(Br)cc21	30.9 µM	34.9 µM	13.1 µM	12.2 µM	5.21 µM	16.8 µM	14.2 µM	23.8 µM	17.8 µM	19.2 µM	–
COc1cc2c(cc1OC)C(CC1=C(c3ccccc3)CN3CCc4cc(OC)c(OC)cc4C3C1)NCC2 (centres undefined)	33.5 µM	31.4 µM	26.3 µM	–	34.8 µM	37 µM	34.6 µM	–	32.7 µM	30.1 µM	23.4 µM
N#C[C@H](c1ccccn1)c1nc2ccccc2nc1Cl	> 100 µM	> 100 µM	> 100 µM	> 100 µM	> 100 µM	> 100 µM	> 100 µM	> 100 µM	–	–	> 100 µM
CC(=O)Nc1sc(Br)cc1S(=O)(=O)c1ccc(Cl)cc1	90.5 µM	–	30.8 µM	> 100 µM	47.2 µM	> 100 µM	> 100 µM	68.5 µM	> 100 µM	78.3 µM	83.1 µM
CCn1c(-c2ccccc2)cs/c1=N\C(P(=O)(O)O)P(=O)(O)O	> 100 µM	> 100 µM	> 100 µM	> 100 µM	> 100 µM	–	> 100 µM	–	> 100 µM	> 100 µM	> 100 µM
CCCC(=O)NC(NC1CCCCC1)(C(=O)OCC)C(F)(F)F (centres undefined)	> 100 µM	–	> 100 µM	–	> 100 µM	> 100 µM	> 100 µM	> 100 µM	> 100 µM	> 100 µM	> 100 µM
O=c1oc2ccccc2cc1-c1cc2ccccn2c1	> 100 µM	> 100 µM	> 100 µM	> 100 µM	> 100 µM	–	> 100 µM	–	> 100 µM	> 100 µM	> 100 µM
O=C1/C(=C/c2ccc(Br)s2)NC(=S)N1c1ccccc1	–	> 100 µM	> 100 µM	> 100 µM	> 100 µM	> 100 µM	> 100 µM	–	> 100 µM	> 100 µM	> 100 µM
COC(=O)/C=C(\C(=O)OC)C1C(=O)Oc2c(C)c(=O)c3ccccc3n21 (centres undefined)	> 100 µM	> 100 µM	> 100 µM	> 100 µM	> 100 µM	> 100 µM	> 100 µM	> 100 µM	> 100 µM	> 100 µM	–
